Source: patent EP0471296B1, “1-(Pyridinylalkyl)-1H-indoles, indolines and related analogs” (HOECHST-ROUSSEL PHARMACEUTICALS INCORPORATED, priority 1990, dated 1992)

How the values were obtained:
[1] = system: mice; assay: Dark Avoidance Assay (reversal of scopolamine-induced memory deficit); type: in vivo; details: s.c.
Experimental: In this assay mice are tested for their ability to remember an unpleasant stimulus for a period of 24 hours. A mouse is placed in a chamber that contains a dark compartment; a strong incandescent light drives it to the dark compartment, where an electric shock is administered through metal plates on the floor. The animal is removed from the testing apparatus and tested again, 24 hours later, for the ability to remember the electric shock.
If scopolamine, an anticholinergic that is known to cause memory impairment, is administered before an animal's initial exposure to the test chamber, the animal re-enters the dark compartment shortly after being placed in the test chamber 24 hours later. This effect of scopolamine is blocked by an active test compound, resulting in a greater interval before re-entry into the dark compartment.
The results for an active compound are expressed as the percent of a group of animals in which the effect of scopolamine is blocked, as manifested by an increased interval between being placed in the test chamber and re-entering the dark compartment.

[2] = molecular target: T1, Brain Acetylcholinesterase (Rattus norvegicus, UniProt P37136); assay: In Vitro Inhibition of Acetylcholinesterase Activity in Rat Striatum (modified Ellman method); type: biochemical; details: rat striatum homogenate, read-out: % Inhibition @ Dose
T1 construct: corpora striata dissected free, weighed and homogenized in 19 volumes; from tissue; host or cells: rat corpora striata homogenate (male Wistar rats)
Description: Cholinesterases are found throughout the body, both in the brain and in serum. However, only brain acetylcholinesterase (AChE) distribution is correlated with central cholinergic innervation. […] We have determined in vitro inhibition of acetylcholinesterase activity in rat striatum according to the method described below.
In Vitro Inhibition of Acetylcholinesterase Activity in Rat Striatum
Acetylcholinesterase (AChE), which is sometimes called true or specific cholinesterase, is found in nerve cells, skeletal muscle, smooth muscle, various glands and red blood cells. AChE may be distinguished from other cholinesterases by substrate and inhibitor specificities and by regional distribution.
It is generally accepted that the physiological role of AChE is the rapid hydrolysis and inactivation of acetylcholine. […]
• A. Reagents- • 1. […] If active, IC₅₀ values are determined from the inhibitory activity of subsequent concentrations. • B. Tissue Preparation - Male Wistar rats are decapitated, brains rapidly removed, corpora striata dissected free, weighed and homogenized in 19 volumes (approximately 7 mg protein/ml) of 0.05 M phosphate buffer, pH 7.2, using a Potter-Elvehjem homogenizer. […] Assay Enzyme activity is measured with the Beckman DU-50 spectrophotometer. […] This program also calculates the rate of absorbance change for each cuvette. […]

T1 sequence (P37136 32-614): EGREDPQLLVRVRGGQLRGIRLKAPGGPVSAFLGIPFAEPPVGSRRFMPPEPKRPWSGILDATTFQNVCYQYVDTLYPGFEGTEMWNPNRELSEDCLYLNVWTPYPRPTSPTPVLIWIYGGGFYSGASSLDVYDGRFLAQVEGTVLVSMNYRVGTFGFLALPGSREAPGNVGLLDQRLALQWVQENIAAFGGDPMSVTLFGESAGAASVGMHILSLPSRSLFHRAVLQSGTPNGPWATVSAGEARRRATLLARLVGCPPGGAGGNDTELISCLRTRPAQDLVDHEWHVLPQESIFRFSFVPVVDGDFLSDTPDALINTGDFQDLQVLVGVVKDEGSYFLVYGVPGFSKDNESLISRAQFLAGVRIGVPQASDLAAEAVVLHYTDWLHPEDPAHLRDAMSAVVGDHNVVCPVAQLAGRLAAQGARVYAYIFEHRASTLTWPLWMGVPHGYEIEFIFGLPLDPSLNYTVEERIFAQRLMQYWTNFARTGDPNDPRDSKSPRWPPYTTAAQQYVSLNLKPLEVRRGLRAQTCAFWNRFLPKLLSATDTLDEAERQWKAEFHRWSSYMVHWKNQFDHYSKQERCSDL

c1ccc2c(c1)ccn2Cc1ccncc1 [1-(4-pyridinylmethyl)-1H-indole, 1-(4-Pyridinylmethyl)-1H-indole]
% of Animals with Scopolamine-Induced Memory Deficit Reversal ([1]; dose 0.3 mg/kg of body weight): 33%
% of Animals with Scopolamine-Induced Memory Deficit Reversal ([1]; dose 1.0 mg/kg of body weight): 20%

CC[C@@H]1C(=O)OC[C@@H]1Cc1cncn1C [Pilocarpine]
% of Animals with Scopolamine-Induced Memory Deficit Reversal ([1]; dose 5.0 mg/kg of body weight): 13%

CN1CCC2(C)c3cc(O)ccc3N(C)C12 (stereo not shown) [Eseroline]
inhibition at 6.4 µM ([2]; 6.4 µM): 50%

CCCC(c1ccncc1)n1ccc2ccccc21 (stereo not shown) [1-[1-(4-pyridinyl)-butyl]-1H-indole, 1-[1-(4-Pyridinyl)butyl]-1H-indole]
% of Animals with Scopolamine-Induced Memory Deficit Reversal ([1]; dose 0.3 mg/kg of body weight): 20%

Nc1c2c(nc3ccccc13)CCCC2 [Tacrine]
% of Animals with Scopolamine-Induced Memory Deficit Reversal ([1]; dose 0.63 mg/kg of body weight): 13%

Oc1ccc2c(ccn2Cc2ccncc2)c1 [1-(4-pyridinylmethyl)-1H-indol-5-ol, 1-(4-Pyridinylmethyl)-1H-indol-5-ol]
inhibition at 100 µM ([2]; 100 µM): 24%
